Data from PubChem BioAssay (NCI).
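Dose response: 5 concentrations. Exposure: 48 h. Format: 96-well plates. Endpoint: linear interpolation; highest concentration if not reached. Here, GI50 denotes the concentration required for 50% inhibition of growth. TGI marks complete inhibition of growth.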

Each molecule was assayed on SF-539 CNS (assay: growth of human tumour cells (NCI), 48 h).
CNC1C(=O)C(C)C(O)(C(CC(C)C(O)/C=C/C=C/CNC(=O)C(C)(C)C(O)\C(C)=C/C=C\C=C\Cc2cnc(C)o2)OC)C12C(=O)OC2COC (configuration not stated) (tested in a mixture with another compound) was tested, and the TGI was 67 µM. CCN(CC)C(=O)C/C(C)=N/NC(=O)c1ccncc1 showed a TGI of over 100 µM. With CN(C)C(=S)/N=c1\ss/c(=N\C(=S)N(C)C)n1-c1ccc2c(c1)OCO2 the TGI was over 100 µM. COC(=O)C(=O)C(C(=O)C(=O)Nc1ccc(C)cc1C)c1nc2ccccc2[nH]c1=O (configuration not stated) was tested, and the TGI was 98.5 µM. For O=C(O)C(Sc1ccc(Cl)cc1)Sc1ccc(Cl)cc1, the TGI was over 100 µM. CC[C@H](C)[C@H](NC(=O)[C@H]1CCCCN1C)C(=O)N(C)[C@H](CCc1nc(C(=O)N[C@@H](Cc2ccccc2)C[C@H](C)C(=O)OC)cs1)C(C)C was tested, and the GI50 was 0.464 µM and the TGI was 1.53 µM. With Nc1c(-c2ccc(Br)cc2)[n+]([O-])c2ccccc2[n+]1[O-] the TGI was over 100 µM. Work on C#CC[C@]12CC(=O)CC[C@H]1CC(=O)C2 yielded a TGI of over 100 µM. CNC=O.[O]=[Ge].[O]=[Ge].[O]=[Ge].[O]=[Ge][OH].[O]=[Ge][OH] gave a TGI of over 100 µM. N#CCCN(c1ccc(/C=C2\N=C(c3ccc(Cl)cc3)OC2=O)cc1)S(=O)(=O)c1ccccc1 showed a TGI of over 100 µM. Molecule COc1ccc(C2CC(=O)c3c(OC)cc(OC)cc3O2)cc1 (configuration not stated) has a GI50 of over 100 µM and a TGI of over 100 µM. For COC(=O)C1=C(c2ccc3c(c2)OCO3)O[C@H](c2ccc3c(c2)OCO3)[C@H]1COC(C)=O, the TGI was over 100 µM. CCOC(=O)[C@H]1Nc2ccc(C)cc2C2c3ccccc3CC21 (some centres not stated) gave a TGI of over 100 µM. COc1cc([N+](=O)[O-])ccc1NC(=O)C(F)(F)F was tested, and the TGI was over 100 µM. COc1cc(-c2c(C#N)c(N)n3c(nc4ccccc43)c2C#N)cc(Br)c1OC showed a GI50 of over 100 µM and a TGI of over 100 µM. For N#CCCN(CCC#N)c1ccc(/C=C2\N=C(CN3C(=O)c4ccccc4C3=O)OC2=O)cc1, the TGI was over 100 µM. For CSc1nc(NC2OC(COC(C)=O)C(OC(C)=O)C(OC(C)=O)C2OC(C)=O)c2c(OC(C)=O)c(C)c(=O)oc2n1 (configuration not stated), the TGI was over 100 µM. Work on O=C(O)C1C(C(=O)O)C(C(=O)O)C1C(=O)O (configuration not stated) yielded a TGI of over 100 µM. Work on CC#CC(=O)Nc1ccccc1CC(c1c[nH]c2ccccc12)c1c[nH]c2ccccc12 yielded a TGI of 37.2 µM. CN1C(NC(=O)c2ccc(Cl)nc2)=NS(=O)(=O)c2cc(Cl)ccc21 was tested, and the GI50 was over 100 µM and the TGI was over 100 µM. C[C@]12CC[C@@H]3c4ccc(Oc5nc(N6CC6)nc(N6CC6)n5)cc4CC[C@H]3[C@@H]1CCC2=O was tested, and the GI50 was 2.2 µM and the TGI was 7.43 µM. N#Cc1cnsc1 showed a TGI of over 100 µM. For COc1ccc2cc(C(=O)/C=C/c3cccc(OC)c3OC)ccc2c1, the GI50 was 11.1 µM and the TGI was 26.1 µM. Molecule CCCCn1c(-c2ccc(C(=O)O/N=C(\N)c3ccc(OC)cc3)cc2)nc(-c2ccccc2)c1-c1ccccc1 has a GI50 of 1.67 µM and a TGI of 3.24 µM. Molecule CC(C)=CC(=O)N1CCN(C(=O)C=C(C)C)CC1 has a TGI of over 100 µM. CCCCC/C=C/C/C=C/CCCCCCCC1=NC(C)(C)CN1C(C)C was tested, and the GI50 was 1.82 µM and the TGI was 3.3 µM. C[C@]12CC[C@@H]3c4ccc(O)cc4CC[C@H]3[C@@H]1CC[C@@H]2NS(=O)(=O)c1ccc(C(F)(F)F)cc1 was tested, and the GI50 was 1.6 µM and the TGI was 2.97 µM. CCc1cccc(C)c1NC(C)=O was tested, and the TGI was over 100 µM. In the case of O=C(CC(=O)N1N=C(c2ccccc2)C(N=Nc2ccc(Cl)cc2)C1=O)Nc1ccccc1Cl (configuration not stated), the TGI is reported as 68.2 µM.

The molecules below were run on TK-10 renal (assay: growth of human tumour cells (NCI), 48 h).
CC(C)(C)OC(=O)N(CCCN(CCn1c2c(c3ccccc3c1=O)C(=O)c1ccccc1-2)C(=O)OC(C)(C)C)CCn1c2c(c3ccccc3c1=O)C(=O)c1ccccc1-2 gave a GI50 of over 50 µM and a TGI of over 50 µM. Molecule CCCCCCCCCCCCCCCCOP(=O)(O)Oc1ccc(/C=C\c2ccc(OP(=O)(O)OCCCCCCCCCCCCCCCC)cc2)cc1 has a TGI of 72.4 µM. Molecule O=c1[nH]c(=O)n(C2CC(O)C(CS)O2)cc1F (configuration not stated) has a TGI of over 100 µM. CNC1C(=O)C(C)C(O)(C(CC(C)C(O)/C=C/C=C/CNC(=O)C(C)(C)C(O)\C(C)=C/C=C\C=C\Cc2cnc(C)o2)OC)C12C(=O)OC2COC (configuration not stated) (tested in a mixture with another compound) showed a TGI of over 100 µM. Molecule CCN(CC)C(=O)C/C(C)=N/NC(=O)c1ccncc1 has a TGI of over 100 µM. For Cc1c2c(nn1-c1ccc(S(=O)(=O)/N=C3\SCC(=O)N3C(=O)c3ccccc3)cc1)-c1ccccc1CC2, the GI50 was 98 µM and the TGI was over 100 µM. CN(C)C(=S)/N=c1\ss/c(=N\C(=S)N(C)C)n1-c1ccc2c(c1)OCO2 was tested, and the TGI was over 100 µM. COC(=O)C(=O)C(C(=O)C(=O)Nc1ccc(C)cc1C)c1nc2ccccc2[nH]c1=O (configuration not stated) gave a TGI of over 100 µM. For O=C(O)C(Sc1ccc(Cl)cc1)Sc1ccc(Cl)cc1, the TGI was over 100 µM. CC[C@H](C)[C@H](NC(=O)[C@H]1CCCCN1C)C(=O)N(C)[C@H](CCc1nc(C(=O)N[C@@H](Cc2ccccc2)C[C@H](C)C(=O)OC)cs1)C(C)C showed a GI50 of 7.35 µM and a TGI of over 25 µM. C#CC[C@]12CC(=O)CC[C@H]1CC(=O)C2 gave a TGI of over 100 µM.
